According to ChEMBL document CHEMBL5029162, “4-Pyridone-3-carboxylic acid as a benzoic acid bioisostere: Design, synthesis, and evaluation of EP300/CBP histone acetyltransferase inhibitors” (Bioorg Med Chem Lett, 2021):

Key:
CREB-binding protein = CREB-binding protein (Homo sapiens, UniProt Q92793); experiment: Inhibition of CBP (unknown origin)
[1] = target: Histone acetyltransferase KAT6B (Homo sapiens, UniProt Q8WYB5); experiment: Inhibition of MYST4 (unknown origin)
[2] = target: Histone acetyltransferase KAT2A (Homo sapiens, UniProt Q92830); experiment: Inhibition of GCN5 (unknown origin)

Sequence of Histone acetyltransferase KAT6B (Q8WYB5 whole entry): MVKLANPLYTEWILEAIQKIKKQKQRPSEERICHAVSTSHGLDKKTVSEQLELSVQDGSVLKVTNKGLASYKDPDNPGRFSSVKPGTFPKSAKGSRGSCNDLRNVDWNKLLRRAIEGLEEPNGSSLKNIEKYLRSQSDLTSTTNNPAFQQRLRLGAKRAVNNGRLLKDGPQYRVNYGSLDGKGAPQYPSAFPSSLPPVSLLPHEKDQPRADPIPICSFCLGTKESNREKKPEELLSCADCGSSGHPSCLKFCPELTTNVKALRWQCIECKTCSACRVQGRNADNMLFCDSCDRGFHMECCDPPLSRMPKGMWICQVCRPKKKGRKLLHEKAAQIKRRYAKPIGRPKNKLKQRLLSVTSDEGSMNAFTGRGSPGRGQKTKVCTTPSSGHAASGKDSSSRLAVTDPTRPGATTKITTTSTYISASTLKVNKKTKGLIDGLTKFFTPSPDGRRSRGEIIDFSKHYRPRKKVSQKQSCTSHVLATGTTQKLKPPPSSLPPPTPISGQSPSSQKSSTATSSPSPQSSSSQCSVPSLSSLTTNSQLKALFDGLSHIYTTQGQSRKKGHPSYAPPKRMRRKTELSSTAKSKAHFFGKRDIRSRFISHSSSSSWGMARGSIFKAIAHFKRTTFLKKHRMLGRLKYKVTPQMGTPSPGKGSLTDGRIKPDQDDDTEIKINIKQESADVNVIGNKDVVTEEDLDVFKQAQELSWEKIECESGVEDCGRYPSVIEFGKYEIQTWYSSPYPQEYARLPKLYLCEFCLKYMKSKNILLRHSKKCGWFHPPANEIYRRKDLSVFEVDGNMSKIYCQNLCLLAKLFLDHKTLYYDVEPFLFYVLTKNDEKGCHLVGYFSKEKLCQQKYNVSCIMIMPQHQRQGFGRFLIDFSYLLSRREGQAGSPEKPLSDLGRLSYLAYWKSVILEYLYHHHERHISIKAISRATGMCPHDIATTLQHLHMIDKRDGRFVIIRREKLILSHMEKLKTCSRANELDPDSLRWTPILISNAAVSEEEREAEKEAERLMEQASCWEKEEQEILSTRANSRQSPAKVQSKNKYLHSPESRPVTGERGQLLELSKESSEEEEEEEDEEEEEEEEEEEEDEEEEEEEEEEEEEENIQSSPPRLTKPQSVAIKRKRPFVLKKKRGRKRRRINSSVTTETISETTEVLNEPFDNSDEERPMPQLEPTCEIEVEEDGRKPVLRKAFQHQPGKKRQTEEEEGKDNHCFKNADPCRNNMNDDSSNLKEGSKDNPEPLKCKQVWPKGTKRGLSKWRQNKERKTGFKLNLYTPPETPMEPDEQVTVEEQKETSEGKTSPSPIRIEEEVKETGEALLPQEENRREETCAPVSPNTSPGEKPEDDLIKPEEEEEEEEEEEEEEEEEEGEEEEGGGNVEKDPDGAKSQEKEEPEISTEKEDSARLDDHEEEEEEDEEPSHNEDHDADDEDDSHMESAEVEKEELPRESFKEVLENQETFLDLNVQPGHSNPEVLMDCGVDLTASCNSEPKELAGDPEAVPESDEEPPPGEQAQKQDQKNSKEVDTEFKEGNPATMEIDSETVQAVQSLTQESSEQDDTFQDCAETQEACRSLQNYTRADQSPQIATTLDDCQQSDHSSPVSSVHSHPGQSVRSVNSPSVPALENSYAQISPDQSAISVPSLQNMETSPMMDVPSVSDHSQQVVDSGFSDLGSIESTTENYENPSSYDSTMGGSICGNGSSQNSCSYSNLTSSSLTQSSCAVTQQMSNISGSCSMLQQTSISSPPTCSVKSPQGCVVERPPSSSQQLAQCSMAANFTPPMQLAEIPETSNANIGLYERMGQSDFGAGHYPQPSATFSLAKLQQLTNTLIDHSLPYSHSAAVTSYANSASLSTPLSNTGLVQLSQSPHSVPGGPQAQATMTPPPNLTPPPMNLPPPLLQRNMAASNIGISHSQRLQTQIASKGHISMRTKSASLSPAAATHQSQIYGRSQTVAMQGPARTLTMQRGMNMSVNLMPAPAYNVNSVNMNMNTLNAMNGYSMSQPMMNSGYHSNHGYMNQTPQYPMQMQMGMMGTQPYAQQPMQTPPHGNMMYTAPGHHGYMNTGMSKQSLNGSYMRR
Sequence of CREB-binding protein (Q92793 whole entry): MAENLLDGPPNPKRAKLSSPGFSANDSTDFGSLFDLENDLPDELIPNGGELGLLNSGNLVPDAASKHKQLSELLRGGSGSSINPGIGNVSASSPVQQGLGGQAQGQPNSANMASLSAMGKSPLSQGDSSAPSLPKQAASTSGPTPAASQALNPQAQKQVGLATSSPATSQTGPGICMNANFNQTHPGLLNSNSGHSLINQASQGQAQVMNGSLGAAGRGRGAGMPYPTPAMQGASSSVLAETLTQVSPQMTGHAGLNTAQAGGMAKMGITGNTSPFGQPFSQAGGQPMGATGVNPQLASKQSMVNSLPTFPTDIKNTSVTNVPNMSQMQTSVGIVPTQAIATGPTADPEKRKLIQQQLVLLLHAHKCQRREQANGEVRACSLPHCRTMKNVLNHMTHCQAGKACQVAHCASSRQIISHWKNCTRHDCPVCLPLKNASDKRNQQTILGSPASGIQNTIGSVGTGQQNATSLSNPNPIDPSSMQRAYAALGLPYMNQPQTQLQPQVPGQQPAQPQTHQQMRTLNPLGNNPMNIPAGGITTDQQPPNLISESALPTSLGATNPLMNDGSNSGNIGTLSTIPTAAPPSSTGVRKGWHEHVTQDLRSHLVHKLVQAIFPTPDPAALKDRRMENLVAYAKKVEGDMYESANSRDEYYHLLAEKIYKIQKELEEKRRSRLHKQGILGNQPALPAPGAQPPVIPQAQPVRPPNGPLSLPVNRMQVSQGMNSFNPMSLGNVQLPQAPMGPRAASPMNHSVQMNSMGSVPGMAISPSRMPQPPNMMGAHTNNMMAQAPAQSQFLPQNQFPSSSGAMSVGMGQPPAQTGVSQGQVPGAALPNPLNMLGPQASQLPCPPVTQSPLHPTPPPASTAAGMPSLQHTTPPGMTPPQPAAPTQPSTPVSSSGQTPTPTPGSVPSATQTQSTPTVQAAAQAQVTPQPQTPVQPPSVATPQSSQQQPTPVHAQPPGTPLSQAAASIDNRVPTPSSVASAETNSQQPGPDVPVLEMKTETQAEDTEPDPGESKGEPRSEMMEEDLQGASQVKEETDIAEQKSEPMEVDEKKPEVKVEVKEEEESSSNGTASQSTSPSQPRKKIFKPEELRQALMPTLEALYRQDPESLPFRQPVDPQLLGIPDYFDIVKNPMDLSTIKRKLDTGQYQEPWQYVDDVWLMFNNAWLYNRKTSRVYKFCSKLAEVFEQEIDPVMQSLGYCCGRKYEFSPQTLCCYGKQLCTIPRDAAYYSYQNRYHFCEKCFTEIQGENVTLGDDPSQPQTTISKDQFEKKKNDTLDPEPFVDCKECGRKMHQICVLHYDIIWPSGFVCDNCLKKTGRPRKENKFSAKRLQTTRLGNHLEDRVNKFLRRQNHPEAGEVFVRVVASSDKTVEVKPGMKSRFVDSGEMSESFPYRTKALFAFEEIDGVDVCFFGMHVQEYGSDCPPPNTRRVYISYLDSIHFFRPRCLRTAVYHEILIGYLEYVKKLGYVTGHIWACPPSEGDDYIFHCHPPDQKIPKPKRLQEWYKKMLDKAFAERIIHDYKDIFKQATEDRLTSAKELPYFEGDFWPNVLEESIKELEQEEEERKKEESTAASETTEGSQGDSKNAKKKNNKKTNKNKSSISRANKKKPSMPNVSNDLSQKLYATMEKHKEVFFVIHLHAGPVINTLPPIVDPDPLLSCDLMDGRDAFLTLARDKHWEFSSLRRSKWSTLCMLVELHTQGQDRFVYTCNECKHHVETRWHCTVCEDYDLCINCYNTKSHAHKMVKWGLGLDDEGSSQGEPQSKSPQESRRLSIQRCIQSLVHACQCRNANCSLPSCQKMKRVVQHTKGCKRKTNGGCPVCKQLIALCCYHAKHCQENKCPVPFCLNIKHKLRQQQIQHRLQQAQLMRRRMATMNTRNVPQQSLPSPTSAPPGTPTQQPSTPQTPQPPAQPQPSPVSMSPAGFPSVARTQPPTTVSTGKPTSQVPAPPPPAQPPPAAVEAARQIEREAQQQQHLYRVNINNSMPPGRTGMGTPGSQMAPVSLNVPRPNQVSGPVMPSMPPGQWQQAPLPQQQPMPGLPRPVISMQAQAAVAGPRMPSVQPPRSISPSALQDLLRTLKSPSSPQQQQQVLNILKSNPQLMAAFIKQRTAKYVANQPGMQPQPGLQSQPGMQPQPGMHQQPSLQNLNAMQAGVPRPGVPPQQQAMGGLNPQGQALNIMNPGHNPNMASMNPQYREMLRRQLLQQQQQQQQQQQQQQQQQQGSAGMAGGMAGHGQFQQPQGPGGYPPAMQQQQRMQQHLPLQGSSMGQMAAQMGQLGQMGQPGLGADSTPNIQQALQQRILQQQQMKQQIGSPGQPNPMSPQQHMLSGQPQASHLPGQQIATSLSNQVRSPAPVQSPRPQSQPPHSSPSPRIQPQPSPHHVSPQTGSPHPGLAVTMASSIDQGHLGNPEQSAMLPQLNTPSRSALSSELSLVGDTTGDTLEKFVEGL

SMILES | IC50 (CREB-binding protein) [µM] | IC50 [1] [µM] | IC50 [2] [µM]
COC1=C(Cc2ccc(-c3cn(C)cc(C(=O)O)c3=O)s2)C(=O)N(c2ccc3ccccc3c2)C1 | 3.4 | > 50 | > 50
COC1=C(Cc2ccc(-c3cn(Cc4ccccc4)cc(C(=O)O)c3=O)s2)C(=O)N(c2ccc3ccccc3c2)C1 | 1.3 | > 50 | > 50
